# Results from patent publication US20190292514A1, “FERMENTATION MEDIUM COMPRISING CHELATING AGENT” (priority 2016, published 2019).
# What was measured:
# [1] = Trace element solutions with different chelating agents: pH, color and precipitation; format: physicochemical; conditions: for color development and clarity of trace element solution after final mixing: after addition of Na2MoO4 and final mixing (EDTA: after pH adjustment to pH 4); for measured pH value of trace element solution: after addition of all salts and final mixing, chelating agent equimolar to divalent cations; for precipitation of trace element solution after storage for 24 h and pH adjustment to pH 6: storage 24 h at room temperature or 4° C., pH readjusted to pH 6; for complexation and precipitation compared with citrate (summary): trace element solutions
# Text: A trace element solution was mixed together with one of the following chelating agents: citric acid, […], DTPA, EGTA, or […]. Therefore, at first each chelating agent was weight equimolar to the utilized divalent cations. […] After each compound supplementation the solutions were characterized regarding pH value, color and precipitation. After the addition of the last compound, i.e., Na2MoO4, the solutions were aliquoted. […] Afterwards samples were again characterized by pH value, color and precipitation behavior.
# [2] = system: Bacillus licheniformis producing a subtilisin protease; experiment: Protease formation in microtiter plate cultivation, casein based activity assay; format: cell-based; conditions: normalized activity units; for enzyme (protease) activity compared with citrate: trace element solution pH 6.7 and pH 7.7, μL scale; for enzyme (protease) activity lower than with citrate: comparable for pH 6.7 and pH 7.7, μL scale
# Method: (§1) Glucose was supplied in total in an amount of 14 g/I for a cultivation time of 48 h. […] The different fermentation media were aliquoted to a BioLector Flowerplate/microtiter plate […] labs) 700 μL each and cultivated at 30° C., shaker frequency 1200 rpm for 48 h after inoculating with Bacillus licheniformis producing a subtilisin protease. During the cultivation oxygen partial pressure, pH and scattered light for biomass growth are measured online by optical sensors every 15 min. For characterization of protease formation enzyme activity was measured by casein based activity assay.
# [3] = system: Bacillus licheniformis producing a subtilisin protease; experiment: Microtiter plate cultivation, biomass growth by scattered light; format: cell-based; conditions: μL scale; for development of biomass (scatter plot) / maximal biomass values lower compared to MGDA or NTA: 30° C., 48 h; for development of biomass (scatter plot): chelating agent equimolar; for higher scatter (growth and maximal scatter values) compared to citric acid, EGTA, HEEDTA, DTPA and EDTA: FIG. 1
# Method: as §1, with “min.” for “min. For characterization of protease formation enzyme activity was measured by casein based activity assay.”
# [4] = Fermentation medium with trace element solutions and different chelating agents: precipitation; format: physicochemical; conditions: for precipitation in fermentation medium, pH adjustment to 6: samples with pH adjustment to 6; for precipitation in fermentation medium, pH adjustment to 6 / precipitation in fermentation medium, pH adjustment to 7.7: 24 h storage; for precipitation in fermentation medium, pH adjustment to 7.7: samples with pH adjustment to 7.7
# Method: A fermentation medium was mixed with different chelating agents. Therefore, deionized water, Ca(NO3)2*4 H2O, MgSO4*7H2O, NH4H2PO4, and KH2PO4 were mixed together in this certain order with the respective chelating agent. Each chelating agent was weight equimolar to the utilized divalent cations. Afterwards the pH is measured. All three media were aliquoted six times each. Three aliquots of each medium were adjusted to pH 6.7, the other three samples to pH 7.7. Samples were mixed with the trace element solutions as described in Example 1 and stored at 35° C., room temperature and 4° C. for 24 h. Then color formation and precipitation were characterized.
# [5] = system: Bacillus licheniformis producing a subtilisin protease; experiment: Fed-batch cultivation process in 20 L scale, protease formation; format: cell-based; conditions: 20 L scale fed-batch; for STY (productivity), space time yield normalized to % / Titer (productivity), normalized to %: 37° C., pH 7.7, 2 mL/L chelating agent, citric acid = 100%
# Method: The fermentation processes were conducted in a baffled stirred tank reactor (STR) with pH, pO2 and temperature probes in a medium with glucose as main carbon source and complex plant protein as N-source. The concentration of O2 and CO2 were monitored by gas analyses. For the cultivations, the fedbatch mode was chosen with a start working volume of 10 L. As bioreactors, 21 L steal vessels were used with 3 rushton turbines with 6 blades.
# Medium preparation and sterilization for seed and main culture medium took place in the bioreactor, respectively. The medium contained complex plant protein, NH4H2PO4, KH2PO4, Mn(II)SO4*H2O, Fe(II)SO4*7H2O, MgSO4*7H2O, Ca(NO3)2*4 H2O, trace element solution as described above, antifoam and 2 mL/L MGDA or citric acid. pH was adjusted to pH 6.5. The medium was sterilized in the bioreactor under stirred conditions (600 rpm) for 60 min at 121° C. For inoculation with Bacillus licheniformis producing a subtilisin protease 2% of the starting working volume was used from a seed culture fermenter with the same medium. Seed culture cultivation was conducted at 37° C. and harvested during exponential growth phase after 16 h. The main cultivation was conducted at 37° C., with pO2 dependent stirred cascade from 350-1400 rpm, pH 7.7 and an aeration rate of 1.5 wvvm. The glucose feed was started 8 h after inocu lation.
Structure (SMILES),measured pH value of trace element solution [1],complexation and precipitation compared with citrate (summary) [1],"precipitation in fermentation medium, pH adjustment to 6 [4]","precipitation in fermentation medium, pH adjustment to 7.7 [4]",precipitation on supplementation of CuSO4 ([1]; during preparation of the trace element solution),precipitation of trace element solution after storage for 3 h at 4° C. ([1]; 3 h at 4° C.),color development and clarity of trace element solution after final mixing [1],precipitation of trace element solution after storage for 24 h and pH adjustment to pH 6 [1],enzyme (protease) activity compared with citrate [2],development of biomass (scatter plot) [3],"higher scatter (growth and maximal scatter values) compared to citric acid, EGTA, HEEDTA, DTPA and EDTA [3] [%]",enzyme (protease) activity lower than with citrate [2],maximal biomass values lower compared to MGDA or NTA [3],product titer and space time yields versus citric acid [5],"STY (productivity), space time yield normalized to % [5] [%]","Titer (productivity), normalized to % [5] [%]","precipitation in fermentation medium ([4]; all samples, pH 6.7 and 7.7, 35° C., room temperature and 4° C. for 24 h)"
"O=C(O)CN(CCOCCOCCN(CC(=O)O)CC(=O)O)CC(=O)O [EGTA, ethylene glycol tetraacetic acid]",2.7,–,–,–,–,–,dark blue and was a clear solution,the solution turned darker and brownish,–,biomass growth started delayed,–,about 25%,about 20%,–,–,–,–
"O=C(O)CN(CCN(CC(=O)O)CC(=O)O)CC(=O)O [EDTA, ethylene diamine tetraacetic acid]",3,–,–,–,strong white precipitates occurred,–,blue and clear solution,no further precipitation was noticed,–,no growth was detected,–,–,–,–,–,–,–
"O=C(O)CN(CCN(CC(=O)O)CC(=O)O)CCN(CC(=O)O)CC(=O)O [DTPA, diethylene triamine pentaacetic acid]",2.6,better results than citrate,–,–,–,–,dark green and was a clear solution,no precipitation was detected,–,no growth was detected,–,–,–,–,–,–,–
O=C(O)CC(O)(CC(=O)O)C(=O)O [citric acid],4.6,–,–,–,–,–,emerald green and was a crystal clear solution,precipitates formed a red pellet,–,biomass growth started delayed,–,–,about 20%,–,100,100,strong precipitations in all samples
"O=C(O)CC[C@@H](C(=O)O)N(CC(=O)O)CC(=O)O [GLDA, glutamic acid N,N-diacetic acid]",3.7,–,–,–,–,precipitates were detected,light blue and was a crystal clear solution,precipitates were formed,–,–,–,–,–,–,–,–,–

# Now from value to compound, other results behind:
measured pH value of trace element solution [1],complexation and precipitation compared with citrate (summary) [1],"precipitation in fermentation medium, pH adjustment to 6 [4]","precipitation in fermentation medium, pH adjustment to 7.7 [4]",precipitation on supplementation of CuSO4 ([1]; during preparation of the trace element solution),precipitation of trace element solution after storage for 3 h at 4° C. ([1]; 3 h at 4° C.),Structure (SMILES),color development and clarity of trace element solution after final mixing [1],precipitation of trace element solution after storage for 24 h and pH adjustment to pH 6 [1],enzyme (protease) activity compared with citrate [2],development of biomass (scatter plot) [3],"higher scatter (growth and maximal scatter values) compared to citric acid, EGTA, HEEDTA, DTPA and EDTA [3] [%]",enzyme (protease) activity lower than with citrate [2],maximal biomass values lower compared to MGDA or NTA [3],product titer and space time yields versus citric acid [5],"STY (productivity), space time yield normalized to % [5] [%]","Titer (productivity), normalized to % [5] [%]","precipitation in fermentation medium ([4]; all samples, pH 6.7 and 7.7, 35° C., room temperature and 4° C. for 24 h)"
2.5,better results than citrate,low precipitations,no precipitations occurred,–,–,"O=C(O)CN(CC(=O)O)CC(=O)O [NTA, nitrilotriacetic acid]",emerald green and was a crystal clear solution,Neither after storage time of 24 h nor after pH adjustment to pH of 6 any precipitates occurred,on a comparable level as the prior art standard citrate,fastest growth and highest values,20,–,–,–,–,–,–
2.6,better results than citrate,–,–,–,–,"O=C(O)CN(CCO)CCN(CC(=O)O)CC(=O)O [HEEDTA, hydroxyethylethylene diamine triacetic acid]",dark blue and was a clear solution,no precipitation was detected,–,strong delayed growth and lower biomass development,–,60%,–,–,–,–,–
2.8,better results than citrate,low precipitations,no precipitations occurred,–,–,"CC(C(=O)O)N(CC(=O)O)CC(=O)O (stereo not shown) [MGDA, methyl glycine diacetic acid]",green blue and crystal clear solution,Neither after storage for 24 h nor after pH adjustment to pH of 6 any precipitates occurred,on a comparable level as the prior art standard citrate,fastest growth and highest values,20,–,–,higher product titer and space time yields,110,104,–
